Test results as given in patent publication US9770026B2, “Substituted pyrimidine compound and uses thereof” (Shenyang Sinochem Agrochemicals R&D Co., Ltd., priority 2012, dated 2017).

Experiments:
Diamond back moth = assay: insecticidal activity against diamond back moth, airbrush spray; assay type: in vivo
Summary of the method: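 Airbrush leaf-disc spray test: both faces of 2 cm cabbage discs received 0.5 ml of test solution at 0.7 kg/cm^2. Solutions were made in acetone:methanol (1:1) and brought to concentration with 0.1% Tween 80 in water. Ten second-instar larvae per disc, triplicates, were held at 25° C and 60˜70% R.H., with mortality recorded at 72 hrs.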

armyworm = assay: bioactivity test against armyworm, airbrush spray; assay type: in vivo; settings: for pest or weed control at 10 µg/mL / pest or weed control at 100 µg/mL / pest or weed control at 600 µg/mL: read-out: Insecticidal activity against armyworm (%)
[1] = test system: Green peach aphids (Myzus Persicae Sulzer); assay: bioactivity test against green peach aphid, airbrush foliar spray; assay type: in vivo; settings: for Insecticidal activity against peach aphid (%): contrastive test
Summary of the method: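 Aphids (15-30 per cabbage leaf disc) on moist filter paper were airbrush-sprayed at 10 psi, 0.5 mL, with compound from acetone:methanol (1:1) diluted in water with 0.1% tween 80. Held at 25±1 C, 60±5% RH; survivors counted after 48 hrs to give death rates.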

carmine spider mite = assay: bioactivity test against carmine spider mite, airbrush spray; assay type: in vivo
Summary of the method: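 Broadbean seedlings infested with adult mites were sprayed with compound (acetone/methanol stock diluted in 0.1% Tween 80 water) by airbrush at 0.7 kg/cm^2, 0.5 ml. Three replicates were run. Mortality was scored after 72 hrs.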

corn rust = assay: protectant activity in vivo against corn rust
wheat powdery mildew = assay: protectant activity in vivo against wheat powdery mildew
cucumber downy mildew = assay: protectant activity in vivo against cucumber downy mildew; settings: for control effect against cucumber downy mildew (%): protectant activity
[2] = 600 ppm, mortality after 72 hrs
[3] = 10 ppm, death rate after 48 hrs
[4] = 100 ppm, death rate after 48 hrs
[5] = 600 ppm, death rate after 48 hrs
[6] = 100 ppm, mortality after 72 hrs

Compound	control (test results against diamond back moth) (Diamond back moth; [2])	control (test results against armyworm) (armyworm; 600 ppm, mortality after 72 h)	Insecticidal activity against peach aphid (%) ([1]; 1.25 mg/L)	Insecticidal activity against peach aphid (%) ([1]; 2.5 mg/L)	Insecticidal activity against peach aphid (%) ([1]; 5 mg/L)	Insecticidal activity against peach aphid (%) ([1]; 10 mg/L)	Insecticidal activity against peach aphid (%) ([1]; 100 mg/L)	Insecticidal activity against peach aphid (%) ([1]; 600 mg/L)	control (test results against green peach aphid) [1, 3]	control (test results against green peach aphid) [1, 4]	control (test results against green peach aphid) [1, 5]	Insecticidal activity against carmine spider mite (% ) (carmine spider mite; 2.5 mg/L)	Insecticidal activity against carmine spider mite (% ) (carmine spider mite; 5 mg/L)	Insecticidal activity against carmine spider mite (% ) (carmine spider mite; 10 mg/L, contrastive test)	Insecticidal activity against carmine spider mite (% ) (carmine spider mite; 100 mg/L, contrastive test)	Insecticidal activity against carmine spider mite (% ) (carmine spider mite; 600 mg/L, contrastive test)	control against carmine spider mite (carmine spider mite; [6])	control against carmine spider mite (carmine spider mite; [2])	protectant activity against wheat powdery mildew in vivo (wheat powdery mildew; 100 ppm)	protectant activity against wheat powdery mildew in vivo (wheat powdery mildew; 400 ppm)	also measured
CCc1ncnc(NCCc2ccc(Oc3ccc(C(F)(F)F)cc3)cc2)c1Cl.Cl [II-19334]	100%	100%	67%	83%	96%	100%	100%	100%	100%	100%	100%	87%	100%	100%	100%	100%	100%	100%	100%	100%	pest or weed control at 100 ppm (Diamond back moth; 72 h, 100 ppm, mortality after 72 hrs, read-out: control (test results against diamond back moth)): 100%; pest or weed control at 10 µg/mL (armyworm; 72 h, 10 mg/L): 44%; pest or weed control at 100 µg/mL (armyworm; 72 h, 100 mg/L): 84%; pest or weed control at 600 µg/mL (armyworm; 72 h, 600 mg/L): 100%; pest or weed control at 100 ppm (armyworm; 72 h, 100 ppm, mortality after 72 h): 80 to 99%; pest or weed control at 2.5 ppm ([1]; Myzus persicae, foliar, 48 h, 2.5 ppm, death rate after 48 hrs): 80 to 99%; control against carmine spider mite (carmine spider mite; 10 ppm, mortality after 72 hrs): 100%; pest or weed control at 2.5 ppm (carmine spider mite; Tetranychus cinnabarinus, 72 h, 2.5 ppm, mortality after 72 hrs): 80 to 99%; pest or weed control at 5 ppm (carmine spider mite; Tetranychus cinnabarinus, 72 h, 5 ppm, mortality after 72 hrs): 100%; protectant activity against corn rust in vivo (corn rust; 400 ppm): 100%; protectant activity against wheat powdery mildew in vivo (wheat powdery mildew; 25 ppm): 100%; pest or weed control at 1.6 µg/mL (wheat powdery mildew; Triticum aestivum, 168 h, read-out: control effect against wheat powdery mildew (%), 1.6 mg/L, protectant activity): 60%; pest or weed control at 6.25 µg/mL (wheat powdery mildew; Triticum aestivum, 168 h, read-out: control effect against wheat powdery mildew (%), 6.25 mg/L, protectant activity): 100%; pest or weed control at 25 µg/mL (wheat powdery mildew; Triticum aestivum, 168 h, read-out: control effect against wheat powdery mildew (%), 25 mg/L, protectant activity): 100%; pest or weed control at 100 µg/mL (wheat powdery mildew; Triticum aestivum, 168 h, read-out: control effect against wheat powdery mildew (%), 100 mg/L, protectant activity): 100%; pest or weed control at 400 µg/mL (wheat powdery mildew; Triticum aestivum, 168 h, read-out: control effect against wheat powdery mildew (%), 400 mg/L, protectant activity): 100%; pest or weed control at 6.25 ppm (wheat powdery mildew; Triticum aestivum, 168 h, read-out: protectant activity against wheat powdery mildew in vivo, 6.25 ppm): 100%
CCc1ncnc(NCCc2ccc(Oc3ccc(C(F)(F)F)cn3)cc2)c1Cl [Compound I-6757]	100%	100%	100%	100%	100%	100%	100%	100%	100%	100%	100%	75%	80%	–	–	–	100%	100%	100%	100%	control (test results against diamond back moth) (Diamond back moth; [6]): 100%; control (test results against armyworm) (armyworm; 100 ppm, mortality after 72 h): 100%; pest or weed control at 10 µg/mL (armyworm; 72 h, 10 mg/L): 28%; pest or weed control at 100 µg/mL (armyworm; 72 h, 100 mg/L): 100%; pest or weed control at 600 µg/mL (armyworm; 72 h, 600 mg/L): 100%; control (test results against green peach aphid) ([1]; 2.5 ppm, death rate after 48 hrs): 100%; pest or weed control at 5 ppm ([1]; Myzus persicae, foliar, 48 h, 5 ppm, death rate after 48 hrs): 100%; pest or weed control at 10 µg/mL (carmine spider mite; Tetranychus cinnabarinus, 72 h, 10 mg/L, contrastive test, read-out: Insecticidal activity against carmine spider mite (% )): 97%; pest or weed control at 100 µg/mL (carmine spider mite; Tetranychus cinnabarinus, 72 h, 100 mg/L, contrastive test, read-out: Insecticidal activity against carmine spider mite (% )): 100%; pest or weed control at 600 µg/mL (carmine spider mite; Tetranychus cinnabarinus, 72 h, 600 mg/L, contrastive test, read-out: Insecticidal activity against carmine spider mite (% )): 100%; protectant activity against corn rust in vivo (corn rust; 100 ppm): 100%; protectant activity against corn rust in vivo (corn rust; 400 ppm): 100%
Cc1ncnc(NCCc2ccc(Oc3ccc(C(F)(F)F)cc3)nc2)c1Cl [III-22]	100%	100%	67%	98%	100%	100%	100%	100%	100%	100%	100%	–	–	72%	100%	100%	100%	100%	–	100%	Insecticidal activity against armyworm (%) (armyworm; 10 mg/L): 71%; Insecticidal activity against armyworm (%) (armyworm; 100 mg/L): 100%; Insecticidal activity against armyworm (%) (armyworm; 600 mg/L): 100%; control (test results against armyworm) (armyworm; 100 ppm, mortality after 72 h): 100%; control effect against cucumber downy mildew (%) (cucumber downy mildew; 6.25 mg/L): 100%; control effect against cucumber downy mildew (%) (cucumber downy mildew; 12.5 mg/L): 100%; control effect against cucumber downy mildew (%) (cucumber downy mildew; 25 mg/L): 100%; control effect against cucumber downy mildew (%) (cucumber downy mildew; 50 mg/L): 100%; control effect against cucumber downy mildew (%) (cucumber downy mildew; 100 mg/L): 100%; control effect against cucumber downy mildew (%) (cucumber downy mildew; 400 mg/L): 100%; protectant activity against cucumber downy mildew in vivo (cucumber downy mildew; 6.25 ppm): 100%; protectant activity against cucumber downy mildew in vivo (cucumber downy mildew; 12.5 ppm): 100%; protectant activity against cucumber downy mildew in vivo (cucumber downy mildew; 25 ppm): 100%; protectant activity against cucumber downy mildew in vivo (cucumber downy mildew; 50 ppm): 100%; protectant activity against cucumber downy mildew in vivo (cucumber downy mildew; 100 ppm): 100%; protectant activity against cucumber downy mildew in vivo (cucumber downy mildew; 400 ppm): 100%
CCc1ncnc(NCCc2ccc(Oc3ccc(C#N)cn3)cc2)c1Cl [Compound I-255]	100%	100%	–	–	–	–	–	–	100%	100%	100%	72%	84%	85%	100%	100%	100%	100%	100%	100%	Insecticidal activity against diamond back moth (%) (Diamond back moth; 10 mg/L): 43%; Insecticidal activity against diamond back moth (%) (Diamond back moth; 100 mg/L): 100%; Insecticidal activity against diamond back moth (%) (Diamond back moth; 600 mg/L): 100%; control (test results against diamond back moth) (Diamond back moth; [6]): 100%; Insecticidal activity against armyworm (%) (armyworm; 10 mg/L): 25%; Insecticidal activity against armyworm (%) (armyworm; 100 mg/L): 100%; Insecticidal activity against armyworm (%) (armyworm; 600 mg/L): 100%; control (test results against armyworm) (armyworm; 100 ppm, mortality after 72 h): 100%; protectant activity against wheat powdery mildew in vivo (wheat powdery mildew; 25 ppm): 100%; protectant activity against cucumber downy mildew in vivo (cucumber downy mildew; 25 ppm): 100%; protectant activity against cucumber downy mildew in vivo (cucumber downy mildew; 50 ppm): 100%; protectant activity against cucumber downy mildew in vivo (cucumber downy mildew; 100 ppm): 100%; protectant activity against cucumber downy mildew in vivo (cucumber downy mildew; 400 ppm): 100%
